Reference: patent publication US11084826B2, “RSV antiviral pyrazolo- and triazolo-pyrimidine compounds” (Janssen Sciences Ireland Unlimited Company, priority 2015, dated 2021)

Legend:
rgRSV224 virus = experiment: Antiviral activity: inhibition of rgRSV224 (GFP-expressing RSV) replication in HeLa cells, GFP expression read-out; assay type: cell-based, respiratory syncytial virus (RSV); conditions: human respiratory syncytial virus, HeLa, read-out: RSV HELA pEC50, rgRSV224 virus (MOI=1) in HeLa cells, GFP read-out (converted)
Outline: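 HeLa cells (3,000/well) were infected with GFP-expressing rgRSV224 (MOI=1) in the presence of 9 serial 4-fold compound dilutions (0.05% DMSO) and incubated at 37° C, 5% CO2. After three days, GFP expression was measured by laser microscopy. EC50 is the concentration giving 50% inhibition of GFP expression.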

[1] = Cytotoxicity in HeLa cells, ATP content measured with the ATPlite kit; assay type: cell-based; conditions: human, TOX HELA pCC50

Compound	EC50 (rgRSV224 virus) [nM]	CC50 at 3 days [1] [nM]	melting point [°C]
CC1CCCCCN1C(=O)c1cc(N(C)C)n2nc(-c3ccc(C#N)cc3F)cc2n1 (stereo not drawn) [Compound H2]	912	> 25100	194 to 195
CC1CCCCCN1C(=O)c1cc(N(C)C)n2nc(-c3ccc(C(N)=O)cc3F)cc2n1 (stereo not drawn) [Compound I30]	240	> 25100	215 to 216
CCc1cc(C(=O)N2CCc3sccc3C2C)nc2cc(-c3ccc(N4CC[C@H](C(=O)O)C4)cc3F)nn12 (single isomer, unassigned) [Compound W43]	2.75	49000	252.56
CCc1cc(C(=O)N2CCCCCC2C)nc2cc(-c3ccc(-c4cnn(C)c4)cc3F)nn12 (stereo not drawn) [Compound F9]	661	> 25100	65 to 67
CCc1cc(C(=O)N2CCCCCC2C)nc2cc(-c3ccc(NC(=O)CCC(=O)N(C)C)cc3F)nn12 (stereo not drawn) [Compound E28]	117	> 25100	180 to 185
CCc1cc(C(=O)N2CCCCC[C@H]2C)nc2cc(-c3ccc(N4CC=C(C(=O)O)CC4)cc3F)nn12 [Compound W11]	234	58900	277.45
CCc1cc(C(=O)N2CC[C@@H]3CCCC[C@@H]3[C@H]2C)nc2cc(-c3ccc(/C=C/C(=O)O)cc3F)nn12 (racemic) [Compound M50]	191	46800	184.15
CCc1cc(C(=O)N2CCc3ccccc3[C@H]2C)nc2cc(-c3ccc(-n4cc(C(=O)O)cn4)cc3F)nn12 [Compound W27]	39.8	46800	144.43
CCc1cc(C(=O)N2CCCCCC2C)nc2cc(-c3ccc(C(N)=O)cc3)nn12 (stereo not drawn) [Compound A25]	550	> 100000	155 to 160
CCc1cc(C(=O)N2CCCCCC2C)nc2cc(-c3ccc(NC(=O)CCC(N)=O)cc3F)nn12 (stereo not drawn) [Compound E25]	61.7	> 25100	155 to 160
CCc1cc(C(=O)N2CCn3c(C)ccc3C2C)nc2cc(-c3ccc(/C=C/C(=O)O)cc3F)nn12 (stereo not drawn) [Compound M42]	191	> 25100	240 to 245
CCc1cc(C(=O)N2CCCCC[C@H]2C)nc2cc(-c3ccc4ccc(C(=O)O)cc4c3F)nn12 [Compound F36]	46.8	> 100000	274.48
CCc1cc(C(=O)N2CCCCC[C@H]2C)nc2cc(-c3ccc(N4CC[C@](C)(C(=O)O)C4)cc3F)nn12 [Compound W49]	43.7	53700	179.2
CCc1cc(C(=O)N2CCCCC[C@H]2C)nc2cc(-c3ccc(-n4ccc(C(=O)O)n4)cc3F)nn12 [Compound W3]	107	60300	207.63
CCc1cc(C(=O)N2CCCCCC2C)nc2cc(-c3ccc4[nH]ccc4c3)nn12 (stereo not drawn) [Compound A7]	589	> 25100	195 to 197
CCc1cc(C(=O)N2CCn3cccc3C2C)nc2cc(-c3ccc(C(N)=O)cc3F)nn12 (stereo not drawn) [Compound I35]	43.7	> 25100	242
CCc1cc(C(=O)N2CCCCCC2C)nc2cc(-c3ccc(CO)cc3)nn12 (stereo not drawn) [Compound A21]	891	> 100000	155 to 160
CCc1cc(C(=O)N2CCCCC2C)nc2cc(-c3ccc(NC(=O)C4CC4)cc3)nn12 (stereo not drawn) [Compound E15]	832	> 96200	260 to 265

Compound	EC50 (rgRSV224 virus) [nM]	CC50 at 3 days [1] [nM]	melting point [°C]
C[C@@H]1CCCCCN1C(=O)c1cc(C2(C)CC2)n2nc(-c3ccc(-c4ccc(C(=O)O)cn4)cc3F)cc2n1 [Compound F31]	49	32400	257.89
CCc1cc(C(=O)N2CCCCCC2C)nc2c(F)c(-c3ccc(C(N)=O)cc3)nn12 (stereo not drawn) [Compound J2]	263	> 25100	195 to 200
CCc1cc(C(=O)N2CCCCCC2C)nc2cc(-c3ccc(NC(=O)Cn4ccnc4)cc3F)nn12 (stereo not drawn) [Compound E3]	132	6460	155 to 160
CCc1cc(C(=O)N2CCCCCC2C)nc2cc(-c3ccc(NC(=O)C4CC4)cc3)nn12 (stereo not drawn) [Compound E14]	309	> 50100	265 to 270
CCc1cc(C(=O)N2CCCCCN2C)nc2cc(-c3ccc(C4C[C@H]4C(=O)O)cc3F)nn12 (mixture of isomers) [Compound O12]	174	> 100000	204.71
CCc1cc(C(=O)N2CCCCC[C@H]2C)nc2cc(-c3ccc(N4CC[C@@](C)(C(=O)O)C4)cc3F)nn12 [Compound W50]	44.7	74100	110.2
CCc1cc(C(=O)N2CCCCCC2C)nc2cc(-c3ccc(NC(=O)Nc4cccc(F)c4)cc3)nn12 (stereo not drawn) [Compound B6]	741	> 100000	260 to 265
CCc1cc(C(=O)N2CCCCC[C@H]2C)nc2cc(-c3ccc(C4CC=C(C(=O)O)CC4)cc3F)nn12 (mixture of isomers) [Compound F69]	195	> 25100	176.26
CCc1cc(C(=O)N2CCCCC[C@H]2C)nc2cc(-c3ccc4c(c3F)OC[C@@H](C(=O)O)C4)nn12 (racemic) [Compound F65]	141	> 100000	186.2
C[C@@H]1c2ccccc2CCN1C(=O)c1cc(C2CC2)n2nc(-c3ccc(C4C[C@H]4C(=O)O)cc3F)cc2n1 (single isomer, unassigned) [Compound O5]	11	55000	222.18
C=CCC(=O)Nc1ccc(-c2cc3nc(C(=O)N4CCCCCC4C)cc(CC)n3n2)c(F)c1 (stereo not drawn) [Compound E5]	138	> 25100	170 to 175
CCCC(=O)Nc1ccc(-c2cc3nc(C(=O)N4CCCCCC4C)cc(CC)n3n2)cc1 (stereo not drawn) [Compound E20]	692	> 25100	268 to 270
CCc1cc(C(=O)N2CCCCCC2C)nc2cc(-c3ccc(NC(=O)NCC4CCCO4)cc3F)nn12 (stereo not drawn) [Compound B1]	129	> 100000	140
CCOc1cc(C(=O)N2CCCCC[C@H]2C)nc2cc(-c3ccc(/C=C/C(=O)O)cc3F)nn12 [Compound M24]	380	> 100000	213.66
CNc1cc(C(=O)N2CCCCCC2C)nc2cc(-c3ccc(C#N)cc3F)nn12 (stereo not drawn) [Compound H1]	562	> 25100	219 to 220
C[C@@H]1CCCCCN1C(=O)c1cc(C2CC2)n2nc(-c3ccc(-n4cc(C(=O)O)cn4)cc3F)cc2n1 [Compound W8]	77.6	55000	232.32
CCc1cc(C(=O)N2CCCCCC2C)nc2nc(-c3ccc(NC(=O)C4CC4)cc3F)nn12 (stereo not drawn) [Compound T1]	550	> 100000	210 to 215
